Experimental data as given in patent US8450366B2, “Isobenzofuran analogs of sclerophytin A” (Board of Trustees of the University of Arkansas, priority 2009, dated 2013).
≈ marks a conversion by molar mass, not a printed value. Where “and” joins values, the source holds several entries; their conditions need not be identical. Identical values can stand only once. Like-named read-outs stand apart in the source and are kept apart here.

What was measured:
[1] = system: KB-3 human carcinoma cell line; assay: MTT colorimetric assay of KB-3 cell viability; assay type: cell-based; settings: for IC50: KB-3 cells, 96 h treatment, triplicate, read-out: IC50, inhibition of KB-3 cell survival assessed by MTT viability assay
Description: The human KB-3 carcinoma cell line was used to perform the MTT colorimetric assay of cell viability.(22-24) Cells were treated with increasing concentrations of compounds to assess their growth inhibitory properties. IC50 values (concentration of the drug required to reduce cell viability by 50%) ranged from 1 to >100 μM (Table 1).
Inhibition of cell proliferation was assessed by the MTT assay. This assay is based on the ability of a mitochondrial dehydrogenase enzyme from viable cells to cleave the tetrazolium rings of the pale yellow 3-(4,5-dimethylthiazol-2-yl)-2,5-diphenyltetrazolium bromide (MTT) and form a dark blue formazan crystal product which is largely impermeable to cell membranes, thus resulting in its accumulation within healthy cells.(22) Solubilization of the cells by the addition of solvent results in the liberation of the crystals which are solubilized. The level of the formazan product created is directly proportional to the number of living cells.(23,24)
All stock solutions of compounds were made at 10 mM in dimethyl sulfoxide (DMSO). DMSO and MTT were from Sigma Chemical Co. (St. Louis, Mo.). Cell culture reagents were obtained from Life Technologies (Carlsbad, Calif.). The KB-3 human carcinoma cell line was maintained in monolayer culture at 37° C. and 5% CO2 in Dulbecco's Modified Eagle's Medium, supplemented with 10% fetal bovine serum, 2 mM L-glutamine, 50 units/mL penicillin, and 50 μg/mL streptomycin.
KB-3 cells (2000/well) were plated in 96-well dishes, and after 24 h were treated with 0.1 nM-100 μM of the compound in question. […] After 96 h, cells were incubated with 50 μg MTT/well/0.2 mL for 4 h at 37° C., the media was removed, and the formazan crystals were dissolved in 0.15 mL of DMSO. Absorbance at 570 nm was measured with an ELx800™ Microplate Reader (Bio Tek Instruments, Inc., Winooski, Vt.). All treatments were performed in triplicate. Results are shown in FIGS. 1A-D as a percentage of control samples (mean±SD). IC50 is the concentration that reduced survival to 50% of the control (no drug).

[2] = system: 60-cell line screening; assay: NCI Developmental Therapeutics 60-cell line screening, single dose; assay type: cell-based; settings: NCI 60-cell line screening
[3] = system: PC-3 prostate cancer cell line; assay: NCI 60-cell line single dose assay, PC-3; assay type: cell-based
[4] = system: RPMI-8226 leukemia cell line; assay: NCI 60-cell line single dose assay, RPMI-8226; assay type: cell-based
[5] = system: entire leukemia panel; assay: NCI 60-cell line single dose assay, leukemia panel; assay type: cell-based
[6] = system: HOP-92 non-small cell lung cancer cell line; assay: NCI 5-dose testing, HOP-92; assay type: cell-based; settings: 5-dose testing, read-out: LC50 (the source's name)
[7] = system: NCI-H522 non-small cell lung cancer cell line; assay: NCI 60-cell line single dose assay, NCI-H522; assay type: cell-based
[8] = system: RPMI-8226 leukemia cell line; assay: NCI 5-dose testing, RPMI-8226; assay type: cell-based; settings: 5-dose testing, read-out: LC50 (the source's name)
[9] = reported in the literature; cited from earlier work
[10] = system: L1210 cell line; settings: reported, cited from earlier work

Row | Compound | IC50 [1] | also measured
1 | C=C(C)[C@H]1CC=C(C)[C@@]2(O)[C@@H]1[C@H](c1ccccc1Br)O[C@@H]2C(=O)OC [Compound 5a.i] | 5 µM | 
2 | C=C(C)[C@H]1CC=C(C)[C@@]2(O)[C@@H]1[C@H](c1ccccc1Br)O[C@@H]2C(=O)OCC1CC1 [Compound 5a.ii] | 50 µM | 
3 | C=C(C)[C@H]1CC=C(C)[C@@]2(O)[C@@H]1[C@H](c1ccccc1Br)O[C@@H]2C(=O)OCC1CCCC1 [Compound 5a.iii] | > 100 µM | 
4 | C=C(C)[C@H]1CC=C(C)[C@@]2(O)[C@@H]1[C@H](c1ccccc1Br)O[C@@H]2C(=O)OCC [Compound 5a] | ~20 µM and 20 µM | 
5 | C=C(C)[C@H]1CC=C(C)[C@@]2(O)[C@@H]1[C@H](c1cccc(Br)c1)O[C@@H]2C(=O)OCC [Compound 5b] | 3 µM | 
6 | C=C(C)[C@H]1CC=C(C)[C@@]2(O)[C@@H]1[C@H](c1cccc(Cl)c1Cl)O[C@@H]2C(=O)OCC [Compound 5c] | 5 µM | 
7 | C=C(C)[C@H]1CC=C(C)[C@@]2(O)[C@@H]1[C@H](c1ccc(Cl)cc1Cl)O[C@@H]2C(=O)OCC [Compound 5d] | 3 µM | activity in single dose assays [2]: no significant activity
8 | C=C(C)[C@H]1CC=C(C)[C@@]2(O)[C@@H]1[C@H](c1cccc3ccccc13)O[C@@H]2C(=O)OC [Compound 5e] | 10 µM | fold more active than the corresponding diene 10e ([1]; KB-3 IC50, entry 8 vs. entry 18): at least 10 fold
9 | C=C(C)[C@H]1CC=C(C)[C@@]2(O)[C@@H]1[C@H](c1ccccn1)O[C@@H]2C(=O)OC [Compound 5f] |  | IC50 ([1]; Homo sapiens, KB3): 100 µM
10 | C=C(C)[C@H]1CC=C(C)[C@@]2(O)[C@@H]1[C@H](c1cccc[n+]1C)O[C@@H]2C(=O)OC [Compound 5i] |  | IC50 ([1]; Homo sapiens, KB3): > 100 µM
11 | C=C(C)[C@H]1CC(=O)C(C)=C2[C@@H](C(=O)OCC)O[C@@H](c3ccccc3Br)[C@@H]21 [Compound 6a] | ~70 µM and 70 µM | 
12 | C=C(C)[C@H]1CC(=O)C(C)=C2[C@@H](C(=O)OCC)O[C@@H](c3cccc(Br)c3)[C@@H]21 [Compound 6b] | 30 µM | 
13 | C=C(C)[C@H]1CC(=O)C(C)=C2[C@@H](C(=O)OCC)O[C@@H](c3cccc(Cl)c3Cl)[C@@H]21 [Compound 6c] | 5 µM | 
14 | C=C(C)[C@H]1CC(=O)C(C)=C2[C@@H](C(=O)OCC)O[C@@H](c3ccc(Cl)cc3Cl)[C@@H]21 [Compound 6d] | 3 µM | differential activity, single dose [3]: significant differential activity; differential activity, single dose [4]: significant differential activity
15 | C=C(C)[C@H]1CC=C(C)[C@@]2(O)[C@@H]1[C@H](c1ccccc1Br)O[C@@H]2C(=O)O [Compound 9] | > 100 µM | 
16 | C=C(C)C1CC=C(C)C2=COC(c3ccccc3Br)C21 (centres unmarked) [Compound 10a] | 4 µM | 
17 | C=C(C)C1CC=C(C)C2=COC(c3cccc4ccccc34)C21 (centres unmarked) [Compound 10e] | > 100 µM | 
18 | C=C(C)C1CC=C(C)C2=COC(c3ccco3)C21 (centres unmarked) [Compound 10g] | 2 µM | 
19 | C=C(C)C1CC=C(C)C2=COC(c3ccccc3F)C21 (centres unmarked) [Compound 10h] | 1 µM | differential activity, single dose [5]: significant differential activity; CC50 [6]: 26.8 µM; differential activity, single dose [7]: significant differential activity; CC50 [8]: 9.36 µM
20 | CO[C@]12C=C[C@](C)(O1)[C@@H](OC(=O)/C=C/c1cn(C)cn1)C[C@H]1C(C)=CC[C@H](C(C)C)[C@H]1/C=C\2CO[C@@H]1OC[C@@H](O)[C@@H](O)[C@@H]1OC(C)=O [Eleutherobin] |  | anti-mitotic activity [9]: taxol-like anti-mitotic activity
21 | C=C1CC[C@H](C(C)C)[C@@H]2[C@H]1[C@H]1C[C@](C)(O)[C@@H](O)CC[C@@](C)(O)[C@@H]2O1 [Sclerophytin A] |  | IC50 ([10]; value in brackets, read-out: IC50, growth inhibitory activity against L1210): 0.003 µM; IC50, growth inhibitory activity against L1210 [10]: 1.0 ng/mL (≈ 2.95 nM)
22 | COC(=O)/C1=C/[C@@H]2[C@@H](C(C)C)CC=C(C)[C@@H]2C[C@H](OC(=O)/C=C/c2cn(C)cn2)[C@]2(C)C=C[C@@]1(O)O2 [sarcodictyins A, sarcodictyin A] |  | anti-mitotic activity [9]: taxol-like anti-mitotic activity
23 | sarcodictyin B [sarcodictyins B] |  | anti-mitotic activity [9]: taxol-like anti-mitotic activity
